The source of these data is patent publication US20240246948A1, “BENZAMIDE DERIVATIVE, METHOD FOR PREPARING SAME, AND PHARMACEUTICAL COMPOSITION FOR PREVENTION OR TREATMENT OF CANCER CONTAINING SAME AS ACTIVE INGREDIENT” (HK INNO.N CORPORATION, priority 2021, published 2024).

Molecules are shown by their SMILES.

Experiment [1] addresses Ba/F3 EGFR L858R/T790M (LT) (Homo sapiens, UniProt P00533, T790M/L858R, cells depend on it). Description: Cell growth inhibitory ability in Ba/F3 cells overexpressing EGFR L858R/T790M (MTS, CellTiter 96 AQueous). The format is cell-based. The note with it: 72 hours, MTS absorbance at 490 nm, read-out: Ba/F3 EGFR double mutant L858R/T790M, IC50. As to the method: (§1) In order to confirm that the compound represented by formula 1 provided in one aspect of the present invention acts as an allosteric inhibitor against WT and mutant of EGFR, the cell growth inhibitory effect was evaluated in BaF3 cells overexpressing WT and mutant of EGFR.
(§2) More specifically, the cell growth inhibitory ability of the compound of the present invention to the Ba/F3 cell line overexpressing WT and mutant of EGFR was evaluated using CellTiter 96 AQueous Non-Radioactive Cell Proliferation Assay system of Promega, as follows. AQueous Non-Radioactive Cell Proliferation Assay is a method of confirming cell growth inhibitory ability by measuring the degree of color development by reducing MTS (3-(4,5-Dimethylthiazol-2-yl)-5-(3-carboxymethoxyphenyl)-2-(4-sulfophenyl)-2H-tetrazolium) to Formazan by a reductase secreted by mitochondria present in living cells in a cell culture state. The Ba/F3 EGFR WT and Ba/F3 EGFR del19/T790M/C797S (DTC), Ba/F3 EGFR L858R (L), Ba/F3 EGFR L858R/T790M (LT), and Ba/F3 EGFR L858R/T790M/C797S (LTC) mutation cell lines used in the present invention were purchased from the laboratory of Professor Byung-cheol Cho, Yonsei University. All cell lines were cultured in RPMI supplemented with 10% FBS, 1% penicillin-streptomycin and 1 μg/ml of puromycine in a 5% CO2 incubator at 37° C.
(§3) The cell survival inhibitory effect of the compound according to each EGFR mutation was analyzed by the following analysis method.
(§4) BaF3 cells were distributed in a 96-well cell culture plate at the density of 2000˜10000 cells/100 μL/well, and cultured for 24 hours. Thereafter, the concentration of the compound represented by formula 1 provided in one aspect of the present invention was prepared to double the final concentrations of 0.1 nM, 1 nM, 10 nM, 100 nM, 1000 nM and 10000 nM, and the compound was treated to the plate (100 μL/well). The plate was reacted in an incubator at 37° C. for 72 hours. Then, MTS was treated to the plate (20 μL/well) and the plate was incubated at 37° C. for 2 to 4 hours. Finally, after measuring the absorbance at 490 nm using a microplate reader, the relative value compared to 0 nM (% Control) was obtained to confirm the cell growth inhibitory ability of the compound. The measured values were analyzed using Prism program (version 8.0, Graphpad Software, Inc.), and the IC50 value (Inhibition concentration 50), an indicator of the cell growth inhibitory ability of the compound, was calculated.

In experiment [2] the target is Ba/F3 EGFR L858R/T790M/C797S (LTC) (Homo sapiens, UniProt P00533, T790M/C797S/L858R, cells depend on it). In words: Cell growth inhibitory ability in Ba/F3 cells overexpressing EGFR L858R/T790M/C797S (MTS, CellTiter 96 AQueous). It counts as cell-based. To be noted: 72 hours, MTS absorbance at 490 nm, read-out: Ba/F3 EGFR triple mutant L858R/T790M/C797S, IC50. The protocol: as §1, §2, §3, §4
Chain of Ba/F3 EGFR L858R/T790M/C797S (LTC) (P00533 whole entry T790M/C797S/L858R): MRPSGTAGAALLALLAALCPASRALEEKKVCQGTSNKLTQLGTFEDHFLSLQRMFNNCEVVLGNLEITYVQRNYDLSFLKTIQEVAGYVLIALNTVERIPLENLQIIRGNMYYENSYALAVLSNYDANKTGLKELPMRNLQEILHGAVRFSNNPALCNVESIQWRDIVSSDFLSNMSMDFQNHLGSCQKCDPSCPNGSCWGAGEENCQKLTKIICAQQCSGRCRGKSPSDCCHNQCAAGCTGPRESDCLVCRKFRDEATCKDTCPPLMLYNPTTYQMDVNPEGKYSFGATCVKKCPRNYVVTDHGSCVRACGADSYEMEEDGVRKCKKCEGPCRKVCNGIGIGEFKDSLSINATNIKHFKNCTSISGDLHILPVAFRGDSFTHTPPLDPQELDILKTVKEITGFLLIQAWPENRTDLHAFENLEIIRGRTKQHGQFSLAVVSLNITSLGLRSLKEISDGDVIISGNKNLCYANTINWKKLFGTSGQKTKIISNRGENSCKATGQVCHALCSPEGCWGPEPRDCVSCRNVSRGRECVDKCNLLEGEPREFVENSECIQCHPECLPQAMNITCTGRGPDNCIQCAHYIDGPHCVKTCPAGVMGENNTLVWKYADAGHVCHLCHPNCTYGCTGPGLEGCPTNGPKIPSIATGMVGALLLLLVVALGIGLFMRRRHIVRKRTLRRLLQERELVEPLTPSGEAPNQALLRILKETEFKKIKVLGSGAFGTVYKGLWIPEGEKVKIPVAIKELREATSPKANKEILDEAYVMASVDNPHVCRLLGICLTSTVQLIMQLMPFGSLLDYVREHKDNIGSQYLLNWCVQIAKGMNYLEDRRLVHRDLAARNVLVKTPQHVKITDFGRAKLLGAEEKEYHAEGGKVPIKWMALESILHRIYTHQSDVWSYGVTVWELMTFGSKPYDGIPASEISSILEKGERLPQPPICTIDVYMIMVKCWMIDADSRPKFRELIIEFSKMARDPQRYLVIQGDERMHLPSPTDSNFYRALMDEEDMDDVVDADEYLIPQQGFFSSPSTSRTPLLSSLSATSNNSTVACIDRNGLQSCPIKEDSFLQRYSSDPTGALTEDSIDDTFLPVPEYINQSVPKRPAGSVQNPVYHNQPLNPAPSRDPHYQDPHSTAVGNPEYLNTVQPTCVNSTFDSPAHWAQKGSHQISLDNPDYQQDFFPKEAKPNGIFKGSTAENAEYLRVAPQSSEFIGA

Chain of Ba/F3 EGFR L858R/T790M (LT) (P00533 whole entry T790M/L858R): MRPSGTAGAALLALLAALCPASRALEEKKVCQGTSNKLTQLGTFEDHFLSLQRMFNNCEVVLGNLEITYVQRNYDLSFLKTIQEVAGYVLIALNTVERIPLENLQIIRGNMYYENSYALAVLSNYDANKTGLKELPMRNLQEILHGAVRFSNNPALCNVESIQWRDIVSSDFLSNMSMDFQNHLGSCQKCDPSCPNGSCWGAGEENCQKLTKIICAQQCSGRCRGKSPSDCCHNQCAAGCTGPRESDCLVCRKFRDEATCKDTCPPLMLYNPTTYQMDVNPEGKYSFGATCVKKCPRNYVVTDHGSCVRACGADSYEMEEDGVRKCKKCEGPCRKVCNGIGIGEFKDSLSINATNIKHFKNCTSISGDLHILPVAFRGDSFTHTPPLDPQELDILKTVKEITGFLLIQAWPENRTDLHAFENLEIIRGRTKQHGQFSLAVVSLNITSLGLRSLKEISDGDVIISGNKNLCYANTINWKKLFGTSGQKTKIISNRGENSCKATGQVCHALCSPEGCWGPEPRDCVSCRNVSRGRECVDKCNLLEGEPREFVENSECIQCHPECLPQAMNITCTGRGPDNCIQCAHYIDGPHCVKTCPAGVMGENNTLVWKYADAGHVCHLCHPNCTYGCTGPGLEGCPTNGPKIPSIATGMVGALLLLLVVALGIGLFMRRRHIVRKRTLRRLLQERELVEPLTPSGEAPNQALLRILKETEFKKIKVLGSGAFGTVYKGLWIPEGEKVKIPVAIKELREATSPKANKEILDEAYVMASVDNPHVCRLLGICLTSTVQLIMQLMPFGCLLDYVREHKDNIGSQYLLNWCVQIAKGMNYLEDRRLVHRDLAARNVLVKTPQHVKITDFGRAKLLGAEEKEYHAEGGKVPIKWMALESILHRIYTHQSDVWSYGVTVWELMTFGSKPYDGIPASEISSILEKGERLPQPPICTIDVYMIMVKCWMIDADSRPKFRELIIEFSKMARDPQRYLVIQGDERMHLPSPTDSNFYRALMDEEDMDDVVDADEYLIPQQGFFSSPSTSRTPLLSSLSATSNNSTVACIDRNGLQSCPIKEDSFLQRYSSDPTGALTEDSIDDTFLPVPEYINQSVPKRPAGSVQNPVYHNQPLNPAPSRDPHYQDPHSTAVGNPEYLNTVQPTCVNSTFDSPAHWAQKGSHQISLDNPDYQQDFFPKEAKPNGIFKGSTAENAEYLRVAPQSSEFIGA

As to `Cc1cc(C(=O)NC(c2cc3ccccc3[nH]2)c2cc(F)ccc2O)cc(-c2ccc(N3CCC(N)CC3)cc2)c1` (centres unmarked) [Example 32, 4′-(4-aminopiperidine-1-yl)-N-((5-fluoro-2-hydroxyphenyl)(1H-indole-2-yl)methyl)-5-methyl-[1,1′-biphenyl]-3-carboxamide], the GI50 in experiment [1] and in experiment [2] was less than 30 nM throughout.

Consider `Cc1cc(C(=O)N[C@@H](c2cc3ccccc3[nH]2)c2cc(F)ccc2O)cc(-c2cc(C)c(N3CCC(N)CC3)cn2)c1` [Example 33, (R)-3-(5-(4-aminopiperidine-1-yl)-4-methylpyridine-2-yl)-N-((5-fluoro-2-hydroxyphenyl)(1H-indole-2-yl)methyl)-5-methylbenzamide], for which the GI50 in experiment [1] and in experiment [2] was less than 30 nM in each case.

As for `Cc1cc(C(=O)N[C@@H](c2cc3ccccc3[nH]2)c2cc(F)ccc2O)cc(-c2cnc(N3CCC(N)CC3)nc2C)c1` [Example 34, (R)-3-(2-(4-aminopiperidine-1-yl)-4-methylpyrimidine-5-yl)-N-((5-fluoro-2-hydroxyphenyl)(1H-indole-2-yl)methyl)-5-methylbenzamide], the GI50 is less than 30 nM in experiment [1] and 30 to 200 nM in experiment [2].

With `Cc1cc(C(=O)N[C@@H](c2cc3ccccc3[nH]2)c2cc(F)ccc2O)cc(-c2ncc(N3CCN(C(=O)OC(C)(C)C)CC3)cn2)c1` [Example 35, tert-butyl (R)-4-(2-(3-(((5-fluoro-2-hydroxyphenyl)(1H-indole-2-yl)methyl)carbamoyl)-5-methylphenyl)pyrimidine-5-yl)piperazine-1-carboxylate], the GI50 in experiment [1] is more than 200 nM; in experiment [2] it was less than 30 nM.

In the case of `Cc1cc(C(=O)N[C@@H](c2cc3ccccc3[nH]2)c2cc(F)ccc2O)cc(-c2ncc(N3CCNCC3)cn2)c1` [Example 36, (R)—N-((5-fluoro-2-hydroxyphenyl)(1H-indole-2-yl)methyl)-3-methyl-5-(5-(piperazine-1-yl)pyrimidine-2-yl)benzamide], the GI50 in experiment [1] and in experiment [2] was less than 30 nM in each case.

Regarding `Cc1cc(C(=O)N[C@@H](c2cc3ccccc3[nH]2)c2cc(F)ccc2O)cc(-c2ncc(N3CCN(C)CC3)cn2)c1` [Example 37, (R)—N-((5-fluoro-2-hydroxyphenyl)(1H-indole-2-yl)methyl)-3-methyl-5-(5-(4-methylpiperazine-1-yl)pyrimidine-2-yl)benzamide], the GI50 in experiment [1] was 30 to 200 nM; in experiment [2] it was less than 30 nM.

As to `CCCC1CCN(c2cnc(-c3cc(C)cc(C(=O)N[C@@H](c4cc5ccccc5[nH]4)c4cc(F)ccc4O)c3)nc2)CC1` [Example 38, N—[(R)-(5-fluoro-2-hydroxy-phenyl)-(1H-indole-2-yl)methyl]-3-methyl-5-[5-(4-propyl-1-piperidyl)pyrimidine-2-yl]benzamide], the GI50 in experiment [1] and in experiment [2] was more than 200 nM each time.

As for `Cc1cc(C(=O)N[C@@H](c2cc3ccccc3[nH]2)c2cc(F)ccc2O)cc(-c2ncc(N3CCC(N(C)C)CC3)cn2)c1` [Example 39, 3-[5-[4-(dimethylamino)-1-piperidyl]pyrimidine-2-yl]-N—[(R)-(5-fluoro-2-hydroxy-phenyl)-(1H-indole-2-yl)methyl]-5-methyl-benzamide], the GI50 in experiment [1] and in experiment [2] was less than 30 nM throughout.

In the case of `Cc1cc(C(=O)N[C@@H](c2cc3ccccc3[nH]2)c2cc(F)ccc2O)cc(-c2ncc(N3CCCCC3)cn2)c1` [Example 40, N—[(R)-(5-fluoro-2-hydroxy-phenyl)-(1H-indole-2-yl)methyl]-3-methyl-5-[5-(1-piperidyl)pyrimidine-2-yl]benzamide], the figures for the GI50 in experiment [1] and in experiment [2] were less than 30 nM and 30 to 200 nM, respectively.

On to `Cc1cc(C(=O)N[C@@H](c2cc3ccccc3[nH]2)c2cc(F)ccc2O)cc(-c2ncc(N3CCN(C4CCN(C)CC4)CC3)cn2)c1` [Example 41, N—[(R)-(5-fluoro-2-hydroxy-phenyl)-(1H-indole-2-yl)methyl]-3-methyl-5-[5-[4-(1-methyl-4-piperidyl)piperazine-1-yl]pyrimidine-2-yl]benzamide], for which the GI50 in experiment [1] and in experiment [2] was less than 30 nM each time.
